One data set addresses T1, IKKβ (Homo sapiens, UniProt O14920).
T1 construct: purchased Invitrogen (Paisley, UK)
T1 sequence (O14920 1-756): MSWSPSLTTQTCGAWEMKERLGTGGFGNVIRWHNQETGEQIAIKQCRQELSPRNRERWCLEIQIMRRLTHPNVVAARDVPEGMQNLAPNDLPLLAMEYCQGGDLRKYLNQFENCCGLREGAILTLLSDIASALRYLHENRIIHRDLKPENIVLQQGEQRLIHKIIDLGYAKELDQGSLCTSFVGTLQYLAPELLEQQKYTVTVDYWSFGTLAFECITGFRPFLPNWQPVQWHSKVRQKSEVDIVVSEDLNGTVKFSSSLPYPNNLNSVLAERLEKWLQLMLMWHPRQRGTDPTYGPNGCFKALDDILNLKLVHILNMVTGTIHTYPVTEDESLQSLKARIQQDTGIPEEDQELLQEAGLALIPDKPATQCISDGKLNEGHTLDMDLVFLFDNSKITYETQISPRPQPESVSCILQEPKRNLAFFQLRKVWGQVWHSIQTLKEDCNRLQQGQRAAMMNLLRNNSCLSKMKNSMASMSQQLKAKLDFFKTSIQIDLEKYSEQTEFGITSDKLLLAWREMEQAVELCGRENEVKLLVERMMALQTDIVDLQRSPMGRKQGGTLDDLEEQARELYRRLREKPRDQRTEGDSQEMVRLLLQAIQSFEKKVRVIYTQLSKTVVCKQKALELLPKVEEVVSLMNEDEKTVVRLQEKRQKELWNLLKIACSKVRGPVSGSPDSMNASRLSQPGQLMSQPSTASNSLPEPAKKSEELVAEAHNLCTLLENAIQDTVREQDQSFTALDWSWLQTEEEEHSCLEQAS
Kind of data set: IKKβ enzyme assay (Z'-LYTE, Invitrogen). Format: biochemical. On the procedure:
The ability of compounds to inhibit IKKβ kinase activity was measured in an assay performed by Invitrogen (Paisley, UK). The Z′-LYTE™ biochemical assay employs a fluorescence-based, coupled-enzyme format and is based on the differential sensitivity of phosphorylated and non-phosphorylated peptides to proteolytic cleavage. The peptide substrate is labelled with two fluorophores—one at each end—that make up a FRET pair. In the primary reaction, the kinase transfers the gamma-phosphate of ATP to a single serine or threonine residue in a synthetic FRET-peptide. In the secondary reaction, a site-specific protease recognizes and cleaves non-phosphorylated FRET-peptides. Phosphorylation of FRET-peptides suppresses cleavage by the Development Reagent. Cleavage disrupts FRET between the donor (i.e., coumarin) and acceptor (i.e. fluorescein) fluorophores on the FRET-peptide, whereas uncleaved, phosphorylated FRET-peptides maintain FRET. A […] method, which calculates the ratio (the Emission Ratio) of donor emission to acceptor emission after excitation of the donor fluorophore at 400 nm, is used to quantitate reaction progress.
The final 10 μL Kinase Reaction consists of 0.9-8.0 ng IκBKB (IKKβ), 2 μM Ser/Thr 05 Peptide and ATP in 50 mM HEPES pH 7.5, 0.01% BRIJ-35, 10 mM MgCl2, 1 mM EGTA. The assay is performed at an ATP concentration at, or close to the Km. After the 60 minute Kinase Reaction incubation at room temperature, 5 μL of a 1:128 dilution of Development Reagent is added. The assay plate is incubated for a further 60 minutes at room temperature and read on a fluorescence plate reader.
Duplicate data points are generated from a 1/3 log dilution series of a stock solution of test compound in DMSO. Nine dilutions steps are made from a top concentration of 10 μM, and a ‘no compound’ blank is included. Data is collected and analysed using XLfit software from IDBS. The dose response curve is curve fitted to model number 205 (sigmoidal dose-response model). From the curve generated, the concentration giving 50% inhibition is determined and reported.

Data set [1] relates to TNF-α production in THP-1 cells. Kind of data set: LPS-stimulation of THP-1 cells, TNF-α by ELISA. The format is cell-based. The following applies: Homo sapiens. On the procedure: THP-1 cells were plated in 100 μl at a density of 4×10^4 cells/well in V-bottomed 96 well tissue culture treated plates and incubated at 37° C. in 5% CO2 for 16 hours. 2 hours after the addition of the inhibitor in 100 μl of tissue culture media, the cells were stimulated with LPS (E coli strain 005:B5, Sigma) at a final concentration of 1 μg/ml and incubated at 37° C. in 5% CO2 for 6 hrs. TNF-α levels were measured from cell-free supernatants by sandwich ELISA (R&D Systems #QTA00B).

The test system of data set [2] is TNF-α production in human whole blood. Kind of data set: LPS-stimulation of human whole blood, TNF-α by ELISA. Format: cell-based. On the procedure: Whole blood was taken by venous puncture using heparinised vacutainers (Becton Dickinson) and diluted in an equal volume of RPMI1640 tissue culture media (Sigma). 100 μl was plated in V-bottomed 96 well tissue culture treated plates. 2 hours after the addition of the inhibitor in 100 μlof RPMI1640 media, the blood was stimulated with LPS (E coli strain 005:B5, Sigma) at a final concentration of 100 ng/ml and incubated at 37° C. in 5% CO2 for 6 hours. TNF-α levels were measured from cell-free supernatants by sandwich ELISA (R&D Systems #QTA00B).

The subject of data set [3] is U937 (monocyte cell line) cells. Kind of data set: Intact cell accumulation assay, U937 cells. Particulars: 6 μmol/L compound. The format is in vitro ADME. As for the experimental part:
(§1) Cells (4×10^4/mL) were incubated at 37° C. in culture medium containing 6 μmol/L compound in a 5% (v/v) CO2-humidified atmosphere. Incubations were terminated after 6 h by centrifugation of 25 mL aliquots of the cell suspension at 1500 rpm for 5 min at 4° C. 0.2 mL samples of the culture media supernatants were added to four volumes of acetonitrile. After decanting the supernatant, the residual cell pellet (10^6 cells) was extracted into 1 mL of acetonitrile. Samples were then analyzed for the ester and acid metabolite at room temperature by LC/MS/MS (Sciex API3000). Chromatography was based on a MeCN (75×21 mm) column with a 5% to 95% (v/v) acetonitrile/water, 0.1% (v/v) formic acid mobile phase. For the zero time samples, the cell suspension was chilled and centrifuged as soon as the ester had been added and then extracted into acetonitrile as described. Levels in cells are expressed as ng/mL.

Data set [4] relates to HUT78 (non-monocyte cell line) cells. Kind of data set: Intact cell accumulation assay, HUT78 cells. Particulars: 6 μmol/L compound. Format: in vitro ADME. As for the experimental part:
as §1

The mark [5] stands for this setting: compound as drawn (Ester for the Example 1 row), read-out: Inhibition of IKKβ (IC50 nM).
[6] abbreviates: read-out: IC50 (nM) IKKβ Enzyme.
Setting [7] is: THP-1, read-out: Inhibition of TNF-α production in THP-1 cells (IC50).
The mark [8] stands for this setting: LPS-stimulated THP-1 cells, TNF-α, read-out: IC50 (nM) THP-1.
The mark [9] stands for this setting: LPS-stimulated human whole blood, TNF-α, read-out: IC50 (nM) Human Whole Blood.

Like-named read-outs stand apart in the source and are kept apart here.

`CC(C)C[C@H](NCc1ccc(Cc2cc(C(N)=O)c(NC(N)=O)s2)cc1)C(=O)OC1CCCC1` [Example 1, Cyclopentyl N-(4-{[4-carbamoyl-5-(carbamoylamino)-2-thienyl]methyl}benzyl)-L-leucinate]: the IC50 was 369 nM at IKKβ (Acid: the acid of the drawn ester (Example 1), read-out: Inhibition of IKKβ (IC50 nM), Acid); 10000 nM at IKKβ (setting [5]); more than 5000 nM at IKKβ (setting [6]); 1940 nM in data set [1] (setting [7]); 500 to 5000 nM in data set [1] (setting [8]); 497 nM in data set [2] (Homo sapiens, read-out: Inhibition of TNF-α production in human whole blood (IC50)). Also, the IC50 in data set [2] (setting [9]) was less than 500 nM. The “Ratio of whole blood IC50 to enzyme IC50” value in data set [2] worked out at 0.05. The “Concentration in U937 cell line” value was found to be 420 ng/10^6 cells in data set [3] (0 hrs incubation) and 217 ng/10^6 cells in data set [3] (6 hrs incubation). In addition, the “Concentration in HUT78 cell line” value worked out at 466 ng/10^6 cells in data set [4] (0 hrs incubation) and 465 ng/10^6 cells in data set [4] (6 hrs incubation).
For `NC(=O)Nc1sc(Cc2ccccc2)cc1C(N)=O` [reference compound], the IC50 at IKKβ (setting [5]) was determined as 486 nM; in data set [1] (setting [7]) it was 2710 nM. In addition, the “Ratio of whole blood IC50 to enzyme IC50” value in data set [2] is more than 20. Further, the inhibition at 10 µM in data set [2] (Homo sapiens, @10 μM, read-out: Inhibition of TNF-α production in human whole blood, % at single concentration) amounted to 28%.
In the case of `CC(C)C[C@H](NCc1ccc(C#Cc2cc(C(N)=O)c(NC(N)=O)s2)cc1)C(=O)OC1CCCC1` [Example 4, Cyclopentyl N-(4-{[4-carbamoyl-5-(carbamoylamino)-2-thienyl]ethynyl}benzyl)-L-leucinate], the IC50 was more than 5000 nM at IKKβ (setting [6]), 500 to 5000 nM in data set [1] (setting [8]) and 500 to 5000 nM in data set [2] (setting [9]).
Take `CC(C)C[C@H](NCc1ccc(Cc2cc(C(N)=O)c(NC(N)=O)s2)cc1)C(=O)OC(C)(C)C` [Example 2, tert-Butyl N-(4-{[4-carbamoyl-5-(carbamoylamino)-2-thienyl]methyl}benzyl)-L-leucinate]: the IC50 at IKKβ (setting [6]) is 500 to 5000 nM; in data set [1] (setting [8]), more than 5000 nM; in data set [2] (setting [9]) it was more than 5000 nM.
As to `CC(C)C[C@H](NCc1ccc(CCc2cc(C(N)=O)c(NC(N)=O)s2)cc1)C(=O)OC1CCCC1` [Example 3, Cyclopentyl N-(4-{2-[4-carbamoyl-5-(carbamoylamino)-2-thienyl]ethyl}benzyl)-L-leucinate], the IC50 at IKKβ (setting [6]) is more than 5000 nM; in data set [1] (setting [8]), more than 5000 nM; in data set [2] (setting [9]), 500 to 5000 nM.
Regarding `CC(C)C[C@H](NCc1ccc(Cc2cc(C(N)=O)c(NC(N)=O)s2)cc1)C(=O)O` [Example 5, N-(4-{[4-Carbamoyl-5-(carbamoylamino)-2-thienyl]methyl}benzyl)-L-leucine], the IC50 at IKKβ (setting [6]) was less than 500 nM. The “Concentration in U937 cell line” value in data set [3] (0 hrs incubation) is 68 ng/10^6 cells; in data set [3] (6 hrs incubation), 286 ng/10^6 cells. Further, the “Concentration in HUT78 cell line” value in data set [4] (0 hrs incubation) is on record as 0 ng/10^6 cells.
Turning to `CC(C)C[C@H](NCc1ccc(CCc2cc(C(N)=O)c(NC(N)=O)s2)cc1)C(=O)O` [Example 6, N-(4-{2-[4-Carbamoyl-5-(carbamoylamino)-2-thienyl]ethyl}benzyl)-L-leucine], on IKKβ (setting [6]), the half-inhibitory concentration (IC50) lay within 500 to 5000 nM.

These data come from patent US20120035251A1, “THIOPHENE INHIBITORS OF IKK-B SERINE-THREONINE PROTEIN KINASE” (CHROMA THERAPEUTICS LD., priority 2009, published 2012).
